# Data published in patent US20220370606A1, “Combination Treatments Of Cancer Comprising A TLR Agonist” (Pfizer Inc., priority 2018, published 2022).
# Key:
# Type in all cases: in vivo, mouse
# B16F10 melanoma tumors [1] = experiment: Example 1: TLR3 agonist with anti-OX40 and/or anti-4-1BB antibody, murine B16F10 melanoma model; settings: poly(I:C) 2.5 mg/kg it x1 day 9, anti-OX40 5 mg/kg, anti-4-1BB 3 mg/kg ip x3
# Experimental: This example illustrates the therapeutic activity of a TLR3 agonist in combination with one or both of: i) an agonist anti-OX40 antibody and ii) an agonist anti-4-1BB antibody in a murine B16F10 melanoma model.
# (§1) Six to eight week old female C57BL/6 mice were purchased from the Jackson Laboratories. All animals were housed in a pathogen free vivarium facility at Pfizer and experiments were conducted according to the protocols in accordance with the Institutional Animal Care and Use Committee (IACUC) guidelines.
# (§2) The B16F10 melanoma cell line was purchased from American Type Culture Collection (ATCC). Cells were cultured in Dulbecco's Modified Eagle's Medium (DMEM) supplemented with 10% fetal bovine serum (FBS), 2 mM L-glutamine at 37° C. in 5% carbon dioxide (CO2), and IMPACT-tested for pathogens at Research Animal Diagnostic Laboratory (RADIL) (Columbia, Mo.). Pathogen-free cells growing in an exponential growth phase were harvested and used for tumor inoculation.
# (§3) The TLR3 agonist was polyinosine-polycytidylic acid [poly(I:C)], high molecular weight [a synthetic analog of double-stranded RNA (dsRNA)], purchased from InvivoGen. Poly(I:C) was dosed at 2.5 mg/kg, in phosphate buffered saline (PBS) (Life Technologies), intratumorally (it) for one dose 9 days after tumor inoculation.
# (§4) Therapeutic mouse anti-mouse 4-1BB mAb (mouse immunoglobulin G1 [mIgG1]), derived from the parental clone MAB9371 (R&D Systems), was prepared in-house. Therapeutic mouse anti-OX40 antibodies with the mIgG1 isotype (anti-OX40 mIgG1) were derived from parental clone OX86 in house. Anti-OX40 antibody and anti-4-1BB antibodies were dosed at 5 mg/kg and 3 mg/kg, respectively, in phosphate buffered saline (PBS) (Life Technologies), and dosed at 0.2 mL per mouse intraperitoneally (ip) for 3 doses 3 to 4 days apart.
# (§5) C57BL/6 mice were inoculated subcutaneously at the right flank with 0.3 x 10^6 B16F10 cells in 0.1 mL of PBS. When tumors reached target size, mice were randomized into treatment groups. Treatment was started on the same day as randomization. Tumor size was measured 3-4 times weekly in 2 dimensions using a caliper, and the volume was calculated in cubic millimeters using the formula: V=0.5 L×W^2 where L is the longest diameter of the tumor and W is the diameter perpendicular to L. Body weight was recorded weekly.
# Results are shown in FIGS. 1A-1H and summarized in Table 1 below [mean tumor size±standard deviation (SD)]. Statistical analyses were performed using GraphPad Prism 6.0. 2-way ANOVA was applied to compare the statistical differences among multiple groups relative to the isotype control or other treatment groups. P <0.05 was considered as significant difference. Tumor measurements are in mm^3. For most treatment groups, more days post-tumor inoculation (also referred to as “days post implantation”) are shown in FIGS. 1A-1 H than in the corresponding information in Table 1 (due to the reduction in the number of mice in most groups over the course of the study, and the increase in SD with a reduced number of mice).
# B16F10 melanoma tumors [2] = experiment: Example 3A: TLR3 agonist with anti-PD-1, anti-OX40, anti-4-1BB antibodies, murine B16F10 melanoma model; settings: poly(I:C) 2.5 mg/kg it x1 day 9, anti-PD-1 15, anti-OX40 5, anti-4-1BB 3 mg/kg ip x3
# From the text: This example illustrates the therapeutic activity of a TLR3 agonist in combination with i) an antagonist anti-PD-1 antibody; ii) an antagonist anti-PD-1 antibody and an agonist anti-OX40 antibody; iii) an antagonist anti-PD-1 antibody and an agonist anti-4-1-BB antibody; and iv) an antagonist anti-PD-1 antibody, an agonist anti-4-1-BB antibody, and an agonist anti-OX40 antibody in a murine B16F10 melanoma model.
# as §1
# as §2, with “MO).” for “Mo.).”
# as §3
# as §4, with “in house. Therapeutic mouse anti-mouse PD-1 mAb (mIgG1) was prepared in-house. Anti-PD-1, anti-OX40 antibody and” for “in house. Anti-OX40 antibody and”, “dosed at 15 mg/kg, 5 mg/kg” for “dosed at 5 mg/kg”
# as §5, with “0.3×10^6” for “0.3 x 10^6”
# Results from Example 3A are shown in FIGS. 3A-3L and summarized in Table 3 below [mean tumor size±standard deviation (SD)]. Statistical analyses were performed using GraphPad Prism 6.0. 2-way ANOVA was applied to compare the statistical differences among multiple groups relative to the isotype control or other treatment groups. P<0.05 was considered as significant difference. Tumor measurements are in mm^3. For most treatment groups, more days post-tumor inoculation (also referred to as “days post implantation”) are shown in FIGS. 3A-3L than in the corresponding information in Table 3 (due to the reduction in the number of mice in most groups over the course of the study, and the increase in SD with a reduced number of mice).
# [3] = tested on: dendritic cells in the spleen (CD11c+/CD11b+/CD8+ cells); experiment: Example 5: activated dendritic cells in the spleen of B16F10 tumor mice (FACS); settings: 24 hours after treatment, 5 mg/kg, mean from 5 mice
# Experimental: (§6) This example illustrates activation of immune cells in a mouse tumor model in response to a TLR3 or TLR9 agonist.
# as §1, §2
# (§7) The TLR3 agonist was polyinosine-polycytidylic acid [poly(I:C)], high molecular weight [a synthetic analog of double-stranded RNA (dsRNA)], purchased from InvivoGen. The TLR9 agonist was CpG24555
# (§8) On day 0, C57BL/6 mice were inoculated subcutaneously at the right flank with 5×10^5 B16F10 cells in PBS. […] The treatment groups were 1) PBS (control); 2) poly(I:C) (TLR3 agonist); 3) CpG24555 (TLR9 agonist). Treatment was started on the same day as randomization. Poly(I:C) and CpG24555 were dosed at 5 mg/kg, in phosphate buffered saline (PBS) (Life Technologies).
# (§9) 24 hours after treatment, the mice were euthanized and their spleen, draining lymph nodes, and B16F10 tumor were harvested. The harvested spleen, draining lymph nodes, and B16F10 tumor were dissociated to single cell suspensions, and then stained for evaluation of multiple markers by FACS analysis. To evaluate dendritic cell activation, cells were incubated with anti-CD11c, anti-CD11b, and anti-CD8 mAbs, and additionally one of anti-CD40, anti-CD86, or anti-PD-L1 mAbs. To evaluate effector T cell activation, cells were incubated with anti-CD8 and anti-CD44 mAbs, and additionally one of anti-OX40 or anti-4-1BB mAbs. […]
# [4] = tested on: dendritic cells in the draining lymph nodes (CD11c+/CD11b+/CD8+ cells); experiment: Example 5: activated dendritic cells in the draining lymph nodes of B16F10 tumor mice (FACS); settings: 24 hours after treatment, 5 mg/kg, mean from 5 mice
# Experimental: as §6, §1, §2, §7, §8, §9
# [5] = tested on: effector T cells in the tumor (TILs) (CD8+/CD44+ cells); experiment: Example 5: activated effector T cells in the tumor (TILs) of B16F10 tumor mice (FACS); settings: 24 hours after treatment, 5 mg/kg, mean from 5 mice
# Experimental: as §6, §1, §2, §7
# On day 0, C57BL/6 mice were inoculated subcutaneously at the right flank with 5×10^5 B16F10 cells in PBS. […] The treatment groups were 1) PBS (control); 2) poly(I:C) (TLR3 agonist); 3) CpG24555 (TLR9 agonist). Treatment was started on the same day as randomization. […]
substance,measurement,setting,value
polyinosine-polycytidylic acid [TLR3 agonist],Mean Tumor Size,B16F10 melanoma tumors [1]; day 9 post-tumor inoculation,76 mm^3
same,Mean Tumor Size,B16F10 melanoma tumors [1]; day 10 post-tumor inoculation,116 mm^3
same,Mean Tumor Size,B16F10 melanoma tumors [1]; day 12 post-tumor inoculation,151 mm^3
same,Mean Tumor Size,B16F10 melanoma tumors [1]; day 14 post-tumor inoculation,196 mm^3
same,Mean Tumor Size,B16F10 melanoma tumors [1]; day 16 post-tumor inoculation,309 mm^3
same,Mean Tumor Size,B16F10 melanoma tumors [1]; day 18 post-tumor inoculation,405 mm^3
same,Mean Tumor Size,B16F10 melanoma tumors [1]; day 20 post-tumor inoculation,678 mm^3
same,Mean Tumor Size,B16F10 melanoma tumors [2]; day 9 post-tumor inoculation,74 mm^3
same,Mean Tumor Size,B16F10 melanoma tumors [2]; day 13 post-tumor inoculation,156 mm^3
same,Mean Tumor Size,B16F10 melanoma tumors [2]; day 15 post-tumor inoculation,236 mm^3
same,Mean Tumor Size,B16F10 melanoma tumors [2]; day 17 post-tumor inoculation,349 mm^3
same,Mean Tumor Size,B16F10 melanoma tumors [2]; day 20 post-tumor inoculation,796 mm^3
same,Mean Tumor Size,B16F10 melanoma tumors [2]; day 22 post-tumor inoculation,1206 mm^3
same,% CD40+ of CD11c+/CD11b+/CD8+ cells (activated dendritic cells),[3],20%
same,% CD86+ of CD11c+/CD11b+/CD8+ cells (activated dendritic cells),[3],22.2%
same,% PD-L1+ of CD11c+/CD11b+/CD8+ cells (activated dendritic cells),[3],23%
same,% CD40+ of CD11c+/CD11b+/CD8+ cells (activated dendritic cells),[4],9.9%
same,% CD86+ of CD11c+/CD11b+/CD8+ cells (activated dendritic cells),[4],7.5%
same,% PD-L1+ of CD11c+/CD11b+/CD8+ cells (activated dendritic cells),[4],9%
same,% 4-1BB+ of CD8+/CD44+ cells (activated effector T cells),[5],36.8%
same,% OX-40+ of CD8+/CD44+ cells (activated effector T cells),[5],55.3%
